In patent US20180244653A1, “SELECTIVE ALPHA-7 NICOTINIC RECEPTOR AGONISTS AND METHODS FOR MAKING AND USING THEM” (THE REGENTS OF THE UNIVERSITY OF CALIFORNIA, priority 2015, published 2018):
Several values for one entry are separate records, joined by “and”; a condition that tells them apart may be missing. Identical values can stand only once. Entries after “also recorded” stand apart in the source; their conditions may differ. Like-named read-outs stand apart in the source and are kept apart here.

Legend:
mice = assay: Locomotor activity test (Y-maze); format: in vivo; details: all tested doses, i.p., 1 h before
Procedure: A black polyvinyl chloride Y-maze, which was 40 cm long, 3 cm wide at the bottom and 10 cm wide at the top, and 12 cm high in each arm, was used to study the effect of synthesized compounds on locomotor activity. Each mouse was placed at the end of one arm and was allowed to move freely in Y-maze for 8 min after 1 h injection of vehicle or test compounds. The number of entries to all arms was recorded visually if mice accessed into each arm at least 10 cm from the middle of the maze.
Figure S1. Locomotor activity testing of IND8 (A) and QND8 (B). Mice were injected vehicle or test compounds 1 h before moving freely in Y-maze for 8 min. The number of entries into 3 arms was recorded. The one-way ANOVA was used to evaluate the different result between test and vehicle groups.

α7-nAChRs = biological target: T1, α7-nAChRs (Homo sapiens, UniProt P36544); assay: FRET functional assay (agonist/antagonist) using LGIC-CNiFERs; format: cell-based
T1 construct: expressed in transfected cells; host or cells: HEKtsA201 cells co-expressing TN-XXL
T1 sequence (P36544 23-502): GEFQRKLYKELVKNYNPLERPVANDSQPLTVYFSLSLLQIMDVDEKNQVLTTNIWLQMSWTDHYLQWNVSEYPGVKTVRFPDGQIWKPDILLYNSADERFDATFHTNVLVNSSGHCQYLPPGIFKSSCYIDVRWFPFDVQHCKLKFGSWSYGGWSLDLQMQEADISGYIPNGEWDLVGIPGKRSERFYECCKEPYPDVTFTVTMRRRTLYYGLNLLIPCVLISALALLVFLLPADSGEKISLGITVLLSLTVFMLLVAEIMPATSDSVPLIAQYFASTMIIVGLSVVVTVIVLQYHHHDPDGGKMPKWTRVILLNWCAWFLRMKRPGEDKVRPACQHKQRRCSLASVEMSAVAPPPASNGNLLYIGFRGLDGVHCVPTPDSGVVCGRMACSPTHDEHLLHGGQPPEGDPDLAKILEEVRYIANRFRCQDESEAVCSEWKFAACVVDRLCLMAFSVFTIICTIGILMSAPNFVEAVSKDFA

α4β2-nAChRs = biological target: T2, α4β2-nAChRs (Homo sapiens, UniProt P17787+P43681); assay: as above; format: cell-based; details: for EC50: read-out: EC50 ± SD, α4β2; for Functional properties at α4β2-nAChRs (agonist / antagonist, type): functional screening and characterization
T2 construct: expressed in transfected cells; host or cells: HEKtsA201 cells co-expressing TN-XXL
T2 sequence (P43681 29-627 limits assumed): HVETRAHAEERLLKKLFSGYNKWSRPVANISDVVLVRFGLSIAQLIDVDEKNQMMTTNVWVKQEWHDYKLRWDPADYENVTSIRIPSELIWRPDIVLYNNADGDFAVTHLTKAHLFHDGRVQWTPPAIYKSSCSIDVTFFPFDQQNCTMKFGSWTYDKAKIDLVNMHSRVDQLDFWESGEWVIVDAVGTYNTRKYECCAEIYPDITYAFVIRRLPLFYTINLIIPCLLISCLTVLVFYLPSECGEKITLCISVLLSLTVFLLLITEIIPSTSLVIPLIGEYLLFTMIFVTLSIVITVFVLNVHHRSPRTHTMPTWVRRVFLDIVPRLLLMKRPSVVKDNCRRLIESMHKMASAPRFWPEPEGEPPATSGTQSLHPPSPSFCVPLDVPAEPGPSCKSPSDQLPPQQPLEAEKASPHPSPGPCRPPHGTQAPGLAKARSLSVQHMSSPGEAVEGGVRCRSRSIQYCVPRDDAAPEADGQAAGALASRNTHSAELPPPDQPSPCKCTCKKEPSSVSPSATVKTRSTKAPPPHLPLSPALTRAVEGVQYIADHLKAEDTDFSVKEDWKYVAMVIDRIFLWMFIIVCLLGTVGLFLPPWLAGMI
T2 sequence (P17787 26-502): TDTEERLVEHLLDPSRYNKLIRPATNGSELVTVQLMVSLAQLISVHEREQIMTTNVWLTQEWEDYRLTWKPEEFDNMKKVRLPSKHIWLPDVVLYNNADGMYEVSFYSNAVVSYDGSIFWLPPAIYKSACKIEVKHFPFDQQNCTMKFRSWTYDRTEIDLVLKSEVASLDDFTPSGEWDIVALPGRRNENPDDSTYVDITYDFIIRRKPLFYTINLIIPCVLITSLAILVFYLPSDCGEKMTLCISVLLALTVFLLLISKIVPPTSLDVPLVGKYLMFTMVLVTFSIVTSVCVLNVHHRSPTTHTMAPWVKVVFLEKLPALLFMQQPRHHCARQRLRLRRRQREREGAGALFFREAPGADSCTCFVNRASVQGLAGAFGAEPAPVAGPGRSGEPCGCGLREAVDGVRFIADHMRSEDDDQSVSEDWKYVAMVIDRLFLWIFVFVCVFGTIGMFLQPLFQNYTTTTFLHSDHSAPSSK

5HT3A receptors = biological target: T3, 5HT3A receptors (Mus musculus, UniProt P23979); assay: as above; format: cell-based; details: for EC50: * partial agonist, read-out: Agonist EC50 ± SD, 5HT3A; for Functional properties at 5HT3A receptors (agonist / antagonist, type): functional screening and characterization
T3 construct: expressed in transfected cells; host or cells: HEK293 cells co-expressing TN-XXL
T3 sequence (P23979 24-489): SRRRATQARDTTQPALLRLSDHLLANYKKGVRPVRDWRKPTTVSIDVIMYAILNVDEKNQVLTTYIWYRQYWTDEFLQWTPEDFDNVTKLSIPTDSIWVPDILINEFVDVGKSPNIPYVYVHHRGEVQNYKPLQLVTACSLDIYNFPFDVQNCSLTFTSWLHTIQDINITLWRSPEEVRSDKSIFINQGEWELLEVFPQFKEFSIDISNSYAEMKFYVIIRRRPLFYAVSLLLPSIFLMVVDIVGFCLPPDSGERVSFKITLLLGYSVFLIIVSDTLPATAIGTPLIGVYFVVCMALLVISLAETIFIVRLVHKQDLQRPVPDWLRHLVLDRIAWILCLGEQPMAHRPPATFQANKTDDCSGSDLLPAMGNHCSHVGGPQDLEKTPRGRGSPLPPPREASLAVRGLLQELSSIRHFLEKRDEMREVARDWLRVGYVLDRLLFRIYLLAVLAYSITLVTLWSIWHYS

[1] = system: scopolamine-induced amnesic mice; assay: Water maze test; format: in vivo; details: i.p.; IND8 25 and 50 μmol/kg, QND8 25 μmol/kg
Procedure: The water maze test, a model for spatial learning and reference memory, related to function in the hippocampus, was also used as a study model in which mice locate a hidden platform after training session. Mice were trained to locate a hidden platform until a steady state measured by a shortened escape latency time was reached.
The average swimming time in a target quadrant where the platform had previously been placed was measured in the test day, day 8 (FIG. 25).
FIG. 25 illustrates the average swimming time in the target quadrant of water maze test. Data are presented in means±SE. IND8, QND8, PNU-282987, vehicle (15% Tween80, SH) and tacrine (TC) were injected 1 h and scopolamine (SC) 30 min before testing, respectively.
A black circular tank (diameter 70 cm; height 28 cm) was divided into 4 quadrants with a removable escape platform (6×7.5×14 cm) centered in a target quadrant. The tank was filled with water to 15 cm height and the platform was located 1 cm below the water surface.
Mice were trained from 5-7 days to get the steady state of escape latency. During day 1 to 5, each mouse was trained to swim from each quadrant with 1 min maximum time and allowed to stay on the platform for 10 sec. The mouse is placed on the platform for 10 s if it cannot find the hidden platform within 1 min. The escape latency time from each quadrant was measured. […] The probe test began when the escape latency time reached the steady state. The platform was removed and time spent in the target quadrant was measured. On the next day, all conditions were the same as probe test, but the platform was brought back to remind the mice of the target quadrant location. All mice were injected with test compounds 1 h and scopolamine 30 min before testing. The swimming time in the target quadrant was measured.

[2] = in presence of 10 μM PNU-120596, * partial agonist, >10 = did not pass initial screen, read-out: Agonist EC50 ± SD, α7
[3] = >10 = did not pass initial screen

Compound | Locomotor activity (number of arm entries) vs vehicle (mice) | Fold increase in α7-nAChR agonist potency over lead compound TTIn-1 (α7-nAChRs) [fold] | EC50 (α7-nAChRs; [2]) | EC50 (α4β2-nAChRs; [3]) [nM] | Kd (α4β2-nAChRs; competitive antagonist (^C), >10 = did not pass initial screen, vs (±)-epibatidine, read-out: Antagonist KA ± SD, α4β2) [nM] | Functional properties at α4β2-nAChRs (agonist / antagonist, type) (α4β2-nAChRs) | 5HT3A agonistic properties relative to α7-nAChR agonistic effect (5HT3A receptors) | EC50 (5HT3A receptors; [3]) [nM] | Functional properties at 5HT3A receptors (agonist / antagonist, type) (5HT3A receptors) | Time in target quadrant, water maze vs scopolamine-treated group [1] | EC50 (α7-nAChRs; Agonist EC50 ± SD, α7) [nM] | Kd (α4β2-nAChRs; Antagonist KA ± SD, α4β2, competitive antagonist (^C), >10 = did not pass initial screen, vs (±)-epibatidine) [nM] | Kd (5HT3A receptors; Antagonist KA ± SD, 5HT3A, competitive antagonist (^C), >10 = did not pass initial screen, vs 5-HT) [nM] | Antagonist KA ± SD, α4β2 (α4β2-nAChRs; competitive antagonist (^C), >10 = did not pass initial screen, vs (±)-epibatidine)
c1cc2cc(-c3cn(C4CN5CCC4CC5)nn3)ccc2[nH]1 (stereo not shown) [IND8, 5-((Quinuclid-3-yl)-1H-1,2,3-triazol-4-yl)-1H-indole] | neither a reduction nor an increase in locomotor activity was observed; also recorded: no significant difference | 20 | 30 nM and 28 nM | > 10000 | >10000 | did not elicit agonist or antagonist properties | seven fold lower | 210 | agonistic properties; also recorded: partial agonist | significantly spent more time than amnesia group |  |  |  | 
O=C(N[C@H]1CN2CCC1CC2)c1ccc(Cl)cc1 [PNU-282987, reference compound] |  |  |  | > 10000 |  |  |  |  |  |  | 110 ± 10 | > 10000 | 1200 | 
Oc1ccc(-c2cn(C3CN4CCC3CC4)nn2)cc1 (stereo not shown) [QND8, 3-(4-hydroxyphenyl-1,2,3-triazol-1-yl) quinuclidine] | neither a reduction nor an increase in locomotor activity was observed; also recorded: no significant difference | 20 | 40 nM and 37 nM |  |  | competitive antagonism |  | 900 ± 90 | 5HT3A receptor agonist properties | significantly spent more time than amnesia group |  |  |  | 6.2 ± 1.7^C μM
